# Biological target: T1, CB1 receptor (Homo sapiens, UniProt P21554)
# T1 construct: expressed in transfected cells; membranes prepared from them
# Assay: [35S]-GTPγS binding assay, membranes from cells stably transfected with the CB1 gene, inhibition of CP55940 (EC80) stimulated activity
# Assay type: biochemical
# Conditions: concentration giving half maximal inhibition of GTPγS binding; EC80 concentration of agonist CP55940; 30° C., 45 min
# Procedure: The compound of the present invention is active against the receptor product of the CB1 gene. The affinity of the compound of the invention for central cannabinoid receptors is demonstrable in methods described in Devane et al, Molecular Pharmacology, 1988, 34,605 or those described in WO01/70700 or EP 656354. Alternatively the assay may be performed as follows.
# 10 μg of membranes prepared from cells stably transfected with the CB1 gene were suspended in 200 μl of 100 mM NaCl, 5 mM MgCl2, 1 mM EDTA, 50 mM HEPES (pH 7.4), 1 mM DTT, 0.1% BSA and 100 μM GDP. To this was added an EC80 concentration of agonist (CP55940), the required concentration of test compound and 0.1 μCi [^35S]-GTPγS.
# The reaction was allowed to proceed at 30° C. for 45 min. […] Filters were then covered with scintilant and counted for the amount of [^35S]-GTPγS retained by the filter.
# Activity is measured in the absence of all ligands (minimum activity) or in the presence of an EC80 concentration of CP55940 (maximum activity). […] At various concentrations of novel ligand, activity is calculated as a percentage of the maximum activity and plotted. The data are fitted using the equation y=A+((B−A)/1+((C/x)ÙD)) and the IC50 value determined as the concentration required to give half maximal inhibition of GTPγS binding under the conditions used.
# T1 sequence (P21554 whole entry): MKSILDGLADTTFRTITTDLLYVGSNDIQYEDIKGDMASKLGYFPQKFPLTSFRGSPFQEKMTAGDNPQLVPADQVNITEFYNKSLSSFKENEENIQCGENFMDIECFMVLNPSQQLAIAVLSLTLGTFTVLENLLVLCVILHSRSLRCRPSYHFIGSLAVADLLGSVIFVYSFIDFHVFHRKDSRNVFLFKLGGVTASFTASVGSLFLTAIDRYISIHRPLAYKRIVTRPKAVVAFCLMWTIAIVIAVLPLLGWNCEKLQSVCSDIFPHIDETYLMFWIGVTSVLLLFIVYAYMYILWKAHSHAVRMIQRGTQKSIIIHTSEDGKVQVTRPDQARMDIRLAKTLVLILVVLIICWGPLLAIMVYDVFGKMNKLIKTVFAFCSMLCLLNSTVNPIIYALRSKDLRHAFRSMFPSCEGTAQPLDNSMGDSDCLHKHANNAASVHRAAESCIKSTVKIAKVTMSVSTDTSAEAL
structure (smiles),measurement,value
"O=C(N[C@@H]1CCCC[C@@H]1O)c1nn(-c2ccc(Cl)cc2Cl)c(-c2ccc(OS(=O)(=O)CCC(F)(F)F)cc2)c1CO (single isomer, unassigned) [Example 1, (+)3,3,3-Trifluoro-propane-1-sulfonic acid 4-[2-(2,4-dichloro-phenyl)-5-(2-hydroxy-cyclohexylcarbamoyl)-4-hydroxymethyl-2H-pyrazol-3-yl]-phenyl ester]",IC50,1 nM
